We go through 54 molecules from patent publication US8889732B2, “Fused heterocyclic compounds and thrombopoietin receptor activators” (Nissan Chemical Industries, Ltd., priority 2009, dated 2014).

The assay concerns the target T1, human thrombopoietin receptor (c-mpl) (Homo sapiens, UniProt P40238).
T1 construct: expressed in transfected cells
T1 sequence (P40238 26-635): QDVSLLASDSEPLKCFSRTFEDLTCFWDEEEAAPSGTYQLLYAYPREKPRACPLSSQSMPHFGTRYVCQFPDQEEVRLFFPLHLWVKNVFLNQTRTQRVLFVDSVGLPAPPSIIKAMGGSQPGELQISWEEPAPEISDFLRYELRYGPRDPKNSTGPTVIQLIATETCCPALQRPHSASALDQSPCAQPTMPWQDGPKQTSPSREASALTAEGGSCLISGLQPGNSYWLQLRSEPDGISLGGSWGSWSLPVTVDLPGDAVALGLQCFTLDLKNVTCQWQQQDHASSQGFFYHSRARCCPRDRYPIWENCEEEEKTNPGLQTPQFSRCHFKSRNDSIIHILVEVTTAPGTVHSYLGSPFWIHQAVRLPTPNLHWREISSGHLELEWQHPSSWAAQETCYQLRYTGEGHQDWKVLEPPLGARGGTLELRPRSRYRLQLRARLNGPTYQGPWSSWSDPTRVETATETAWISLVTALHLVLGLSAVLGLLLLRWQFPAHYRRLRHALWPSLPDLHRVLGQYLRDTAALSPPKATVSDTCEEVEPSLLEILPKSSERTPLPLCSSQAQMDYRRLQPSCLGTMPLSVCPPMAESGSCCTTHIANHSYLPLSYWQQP
Briefly: Stimulation of proliferation of thrombopoietin-dependent cell line UT7/EPO-mpl (WST-8). It counts as cell-based. The settings on record: concentration yielding growth rate corresponding to 50% of growth of UT-7/EPO-mpl in the presence of 10 ng/mL TPO; 4 days incubation, WST-8. The protocol:
The responses of thrombopoietin receptor to the compounds of Synthetic Examples of the present invention were assayed using a human leukemic cell line, UT7/EPO-mpl.
UT7/EPO-mpl is a stable transformed cell line obtained by introducing into human leukemic cell line UT7/EPO a vector that induces expression of human thrombopoietin receptor (c-mpl) under control of cytomegalovirus immediate-early promoter by the method of Takatoku et al. (J. Biol. Chem., 272:7259-7263 (1997)). […] These two cell lines were subcultured in IMDM (Invitrogen) containing 10% fetal bovine serum (Thermo Electron or BioWest) using a CO2 incubator (5% CO2, 37° C.).
The subcultured cells described above were washed twice with PBS and suspended in IMDM containing 10% fetal bovine serum at a cell density of 6×10^4 cells/ml. The cell suspension was transferred to a 96-well tissue culture plate (CORNING) in 100-μl aliquots. Then either thrombopoietin (Pepro Tech EC) or the compound of Synthetic Examples dissolved in dimethyl sulfoxide were diluted 83-fold with IMDM containing 10% fetal bovine serum and added to the aforementioned cell suspension in 20-μl aliquots. The cell suspension was incubated in a CO2 incubator (5% CO2, 37° C.) for 4 days. Cell proliferation was assayed using WST-8 reagent (Kishida Chemical Co., Ltd.) according to instructions by the manufacturer. A 10-μl aliquot of 5 mM WST-8 reagent solution was added to each well of the tissue culture plate, and the plate was incubated at 37° C. for 4 hours. The formazan pigment generated was detected by measuring the absorbance at 450 nm with a 96-well microplate reader (Nihon Molecular Devices, Spectramax 190).
(In general: Formazan colour is commonly taken as a measure of viable cells.)
Usually EC50 stands for the concentration that produces a half-maximal response. In the case of `C/C(=N\NC(=O)c1ccc(C(=O)NCc2ccncc2)s1)c1nn(C)c(-c2ccc3c(c2)CCC3)c1O` [compound 1], the half-maximal effective concentration (EC50) is 1.55 nM.

Regarding `C/C(=N\NC(=O)c1ccc(C(=O)NCCc2ccncc2)s1)c1nn(C)c(-c2ccc3c(c2)CCC3)c1O` [compound 2], the EC50 is 3.4 nM.

For the molecule `CCN(CC)C(=O)c1ccc(C(=O)N/N=C(\C)c2nn(C)c(-c3ccc4c(c3)CCC4)c2O)s1` [compound 3], the EC50 was 70.3 nM.

As for `C/C(=N\NC(=O)c1ccc(C(=O)N2CCCC2)s1)c1nn(C)c(-c2ccc3c(c2)CCC3)c1O` [compound 4], the EC50 was 11.1 nM.

`COC(=O)c1ccc(C(=O)N/N=C(\C)c2nn(C)c(-c3ccc4c(c3)CCC4)c2O)cc1[N+](=O)[O-]` [compound 5]: the EC50 was 11.7 nM.

Turning to `COC(=O)c1ccc(C(=O)N/N=C(\C)c2nn(C)c(-c3ccc4c(c3)CCC4)c2O)s1` [compound 6], the concentration giving a half-maximal response (EC50) is 18.9 nM.

In the case of `COC(=O)c1ccc(C(=O)N/N=C(\C)c2nn(C)c(-c3ccc4c(c3)CCC4)c2O)cc1` [compound 7], the 50% effective concentration (EC50) was 43 nM.

As for `COC(=O)C1CCN(C(=S)N/N=C(\C)c2nn(C)c(-c3ccc4c(c3)CCC4)c2O)CC1` [compound 8], the EC50 was 99.4 nM.

Take `C/C(=N\NC(=S)N1CCC(C(=O)O)CC1)c1nn(C)c(-c2ccc3c(c2)CCC3)c1O` [compound 9]: the EC50 was 76.5 nM.

As for `C/C(=N\NC(=O)c1ccc(C(=O)O)s1)c1nn(C)c(-c2ccc3c(c2)CCC3)c1O` [compound 10], the 50% effective concentration (EC50) was 45.5 nM.

Consider `C/C(=N\NC(=O)c1ccc(C(=O)O)cc1)c1nn(C)c(-c2ccc3c(c2)CCC3)c1O` [compound 11], for which the half-maximal effective concentration (EC50) was 57.6 nM.

`C/C(=N\NC(=O)c1ccc(C(=O)O)c([N+](=O)[O-])c1)c1nn(C)c(-c2ccc3c(c2)CCC3)c1O` [compound 12]: the EC50 was 1.73 nM.

`C/C(=N\NC(=S)Nc1ccc(C(=O)O)cc1)c1nn(C)c(-c2ccc3c(c2)CCC3)c1O` [compound 13]: the concentration for a half-maximal effect (EC50) was 59.2 nM.

For the molecule `C/C(=N\NC(=S)Nc1cccc(C(=O)O)c1)c1nn(C)c(-c2ccc3c(c2)CCC3)c1O` [compound 14], the EC50 is 22.7 nM.

For the molecule `C/C(=N\NC(=S)Nc1ccc(C(=O)O)c(Cl)c1)c1nn(C)c(-c2ccc3c(c2)CCC3)c1O` [compound 15], the EC50 is 12.8 nM.

With `C/C(=N\NC(=O)c1ccc(C(=O)NCCc2ccncc2)s1)c1csc(-c2ccc3c(c2)CCCC3)c1O` [compound 16], the 50% effective concentration (EC50) was 0.496 nM.

In the case of `C/C(=N\NC(=S)Nc1cccc(C(=O)O)c1)c1csc(-c2ccc3c(c2)CCCC3)c1O` [compound 17], the EC50 is 49.4 nM.

Regarding `C/C(=N\NC(=O)c1ccc(C(=O)NCc2ccncc2)s1)c1csc(-c2ccc3c(c2)CCO3)c1O` [compound 18], the EC50 is 5.4 nM.

For `C/C(=N\NC(=O)c1ccc(C(=O)NCCc2ccncc2)s1)c1csc(-c2ccc3c(c2)CCO3)c1O` [compound 19], the EC50 is 30 nM.

Regarding `C/C(=N\NC(=O)c1ccc(C(=O)N2CCCC2)s1)c1csc(-c2ccc3c(c2)CCO3)c1O` [compound 21], the concentration giving a half-maximal response (EC50) is 99.7 nM.

As to `C/C(=N\NC(=O)c1ccc(C(=O)NCc2ccncc2)s1)c1csc(-c2ccc3c(c2)CCC3)c1O` [compound 25], the half-maximal effective concentration (EC50) was 0.523 nM.

For `C/C(=N\NC(=O)c1ccc(C(=O)NCCc2ccncc2)s1)c1csc(-c2ccc3c(c2)CCC3)c1O` [compound 26], the EC50 is 0.867 nM.

As to `CCN(CC)C(=O)c1ccc(C(=O)N/N=C(\C)c2csc(-c3ccc4c(c3)CCC4)c2O)s1` [compound 27], the concentration giving a half-maximal response (EC50) is 6.44 nM.

For `C/C(=N\NC(=O)c1ccc(C(=O)N2CCCC2)s1)c1csc(-c2ccc3c(c2)CCC3)c1O` [compound 28], the concentration for a half-maximal effect (EC50) is 5.84 nM.

With `COC(=O)c1ccc(C(=O)N/N=C(\C)c2csc(-c3ccc4c(c3)CCC4)c2O)cc1[N+](=O)[O-]` [compound 29], the EC50 was 12.9 nM.

On to `COC(=O)c1ccc(C(=O)N/N=C(\C)c2csc(-c3ccc4c(c3)CCC4)c2O)s1` [compound 30], for which the concentration giving a half-maximal response (EC50) was 18.8 nM.

Turning to `COC(=O)c1ccc(C(=O)N/N=C(\C)c2csc(-c3ccc4c(c3)CCC4)c2O)cc1` [compound 31], the EC50 was 52.9 nM.

`C/C(=N\NC(=O)c1ccc(C(=O)NCc2ccncc2)s1)c1csc(-c2ccc3c(c2)CCCC3)c1O` [compound 32]: the EC50 is 0.452 nM.

On to `CCN(CC)C(=O)c1ccc(C(=O)N/N=C(\C)c2csc(-c3ccc4c(c3)CCCC4)c2O)s1` [compound 33], for which the concentration giving a half-maximal response (EC50) is 4.84 nM.

Take `C/C(=N\NC(=O)c1ccc(C(=O)N2CCCC2)s1)c1csc(-c2ccc3c(c2)CCCC3)c1O` [compound 34]: the half-maximal effective concentration (EC50) was 2.43 nM.

Take `COC(=O)c1ccc(C(=O)N/N=C(\C)c2csc(-c3ccc4c(c3)CCCC4)c2O)s1` [compound 36]: the EC50 is 9.46 nM.

Consider `COC(=O)c1ccc(C(=O)N/N=C(\C)c2csc(-c3ccc4c(c3)CCCC4)c2O)cc1` [compound 37], for which the concentration giving a half-maximal response (EC50) is 40.1 nM.

`C/C(=N\NC(=S)Nc1ccc(C(=O)O)c(Cl)c1)c1csc(-c2ccc3c(c2)CCO3)c1O` [compound 39]: the 50% effective concentration (EC50) is 43 nM.

`COC(=O)C1CCN(C(=S)N/N=C(\C)c2csc(-c3ccc4c(c3)CCC4)c2O)CC1` [compound 40]: the half-maximal effective concentration (EC50) was 52.4 nM.

As for `C/C(=N\NC(=S)Nc1ccc(C(=O)O)c(Cl)c1)c1csc(-c2ccc3c(c2)CCC3)c1O` [compound 41], the EC50 was 6.79 nM.

On to `COC(=O)C1CCN(C(=S)N/N=C(\C)c2csc(-c3ccc4c(c3)CCCC4)c2O)CC1` [compound 42], for which the concentration for a half-maximal effect (EC50) was 48.8 nM.

For `C/C(=N\NC(=S)Nc1ccc(C(=O)O)c(Cl)c1)c1csc(-c2ccc3c(c2)CCCC3)c1O` [compound 43], the 50% effective concentration (EC50) is 4.8 nM.

Regarding `C/C(=N\NC(=O)c1ccc(C(=O)O)cc1)c1csc(-c2ccc3c(c2)CCO3)c1O` [compound 46], the 50% effective concentration (EC50) was 94.7 nM.

As to `C/C(=N\NC(=O)c1ccc(C(=O)O)c([N+](=O)[O-])c1)c1csc(-c2ccc3c(c2)CCO3)c1O` [compound 47], the EC50 was 55.6 nM.

Take `C/C(=N\NC(=S)N1CCC(C(=O)O)CC1)c1csc(-c2ccc3c(c2)CCC3)c1O` [compound 48]: the half-maximal effective concentration (EC50) was 4.06 nM.

With `C/C(=N\NC(=O)c1ccc(C(=O)O)s1)c1csc(-c2ccc3c(c2)CCC3)c1O` [compound 49], the EC50 was 3.28 nM.

With `C/C(=N\NC(=O)c1ccc(C(=O)O)cc1)c1csc(-c2ccc3c(c2)CCC3)c1O` [compound 50], the concentration giving a half-maximal response (EC50) was 1.76 nM.

In the case of `C/C(=N\NC(=O)c1ccc(C(=O)O)c([N+](=O)[O-])c1)c1csc(-c2ccc3c(c2)CCC3)c1O` [compound 51], the EC50 is 0.451 nM.

With `C/C(=N\NC(=S)N1CCC(C(=O)O)CC1)c1csc(-c2ccc3c(c2)CCCC3)c1O` [compound 52], the concentration for a half-maximal effect (EC50) is 3.71 nM.

Consider `C/C(=N\NC(=O)c1ccc(C(=O)O)s1)c1csc(-c2ccc3c(c2)CCCC3)c1O` [compound 53], for which the EC50 was 1.25 nM.

Turning to `C/C(=N\NC(=O)c1ccc(C(=O)O)cc1)c1csc(-c2ccc3c(c2)CCCC3)c1O` [compound 54], the EC50 was 2.99 nM.

For `C/C(=N\NC(=O)c1ccc(C(=O)O)c([N+](=O)[O-])c1)c1csc(-c2ccc3c(c2)CCCC3)c1O` [compound 55], the concentration giving a half-maximal response (EC50) is 0.396 nM.

For `C/C(=N\NC(=S)Nc1ccc(C(=O)O)cc1)c1csc(-c2ccc3c(c2)CCO3)c1O` [compound 56], the concentration for a half-maximal effect (EC50) is 57.3 nM.

For the molecule `C/C(=N\NC(=S)Nc1ccc(C(=O)O)cc1)c1csc(-c2ccc3c(c2)CCC3)c1O` [compound 58], the EC50 is 5.76 nM.

Consider `C/C(=N\NC(=S)Nc1cccc(C(=O)O)c1)c1csc(-c2ccc3c(c2)CCC3)c1O` [compound 59], for which the EC50 was 53.1 nM.

For the molecule `C/C(=N\NC(=S)Nc1ccc(C(=O)O)cc1)c1csc(-c2ccc3c(c2)CCCC3)c1O` [compound 60], the EC50 was 5.8 nM.

`C/C(=N\NC(=S)Nc1cccc(-c2nnn[nH]2)c1)c1csc(-c2ccc3c(c2)CCCC3)c1O` [compound 61]: the half-maximal effective concentration (EC50) was 4.08 nM.

Regarding `C/C(=N\NC(=S)Nc1ccc(-c2nnn[nH]2)cc1)c1csc(-c2ccc3c(c2)CCCC3)c1O` [compound 62], the half-maximal effective concentration (EC50) is 4.08 nM.

Turning to `C/C(=N\NC(=S)Nc1cccc(-c2nnn[nH]2)c1)c1csc(-c2ccc3c(c2)CCC3)c1O` [compound 63], the EC50 was 3.99 nM.
